What is called IC50 is the concentration that inhibits the measured activity by half. For orientation: Ki means the dissociation constant of the complex between target and ligand, obtained from inhibition or displacement. Read a low Ki as a stronger hold on the target.

In assay [1] the target is T1, Glutathione reductase, mitochondrial (Homo sapiens, UniProt P00390).
T1 sequence (P00390 whole entry): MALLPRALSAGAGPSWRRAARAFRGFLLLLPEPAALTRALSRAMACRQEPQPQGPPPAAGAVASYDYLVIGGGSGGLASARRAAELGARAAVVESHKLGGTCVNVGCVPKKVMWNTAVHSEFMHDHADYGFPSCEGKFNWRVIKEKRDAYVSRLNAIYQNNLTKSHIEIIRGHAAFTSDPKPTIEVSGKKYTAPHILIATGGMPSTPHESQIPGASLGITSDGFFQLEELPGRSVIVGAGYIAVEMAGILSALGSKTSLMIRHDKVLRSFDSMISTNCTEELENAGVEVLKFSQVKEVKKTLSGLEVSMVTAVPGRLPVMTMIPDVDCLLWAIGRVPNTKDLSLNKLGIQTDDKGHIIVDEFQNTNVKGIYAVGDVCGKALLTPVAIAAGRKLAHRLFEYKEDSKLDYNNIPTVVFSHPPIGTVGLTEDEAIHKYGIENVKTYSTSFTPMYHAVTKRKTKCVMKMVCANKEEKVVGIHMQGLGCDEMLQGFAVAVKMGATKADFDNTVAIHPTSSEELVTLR
In words: Glutathione Reductase Activity Assay. To be noted: pH 8. The method, then:
Enzymatic activity was measured by Beutler's method with a Shimadzu Spectrophotometer UV-(1208), at 25°C. The assay system contained 100 mM Tris-HCl buffer pH 8.0, including 0.5 mM EDTA, 3.3 mM GSSG and 0.1 mM NADPH. One enzyme unit is defined as the oxidation of 1 μmol NADPH per min under the assay condition at 25°C.

The target in assay [2] is T2, Glutathione peroxidase 1 (Homo sapiens, UniProt P07203).
T2 sequence (P07203 whole entry): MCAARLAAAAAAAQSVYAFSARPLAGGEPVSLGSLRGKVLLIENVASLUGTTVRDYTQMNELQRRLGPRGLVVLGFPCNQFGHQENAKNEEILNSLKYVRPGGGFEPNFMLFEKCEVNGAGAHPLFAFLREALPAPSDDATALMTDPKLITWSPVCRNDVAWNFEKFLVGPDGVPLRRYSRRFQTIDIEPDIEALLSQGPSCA
In words: Glutathione Peroxidase Activity Assay. To be noted: pH 7. Here is the method: Glutathione peroxidase was assayed in a l-ml system containing 0.1 M potassium phosphate buffer, pH 7.0, 0.2 mM NADPH, 1 i.u. glutathione reductase, 4 mM GSH,4 mM EDTA, 4 mM sodium azide. The reaction mixture was incubated at 37°C for 10 min after which 10 μl of 10 mM t-butyl hydroperoxide were added to start the reaction. No t-butyl hydroperoxide was added to the blank cuvette. The rate of reaction was measured at 37°C by following the decrease in the absorbance at 340 nm using a spectrophotometer.

Assay [3] addresses T3, Microsomal glutathione S-transferase 1 (Homo sapiens, UniProt P10620).
T3 sequence (P10620 whole entry): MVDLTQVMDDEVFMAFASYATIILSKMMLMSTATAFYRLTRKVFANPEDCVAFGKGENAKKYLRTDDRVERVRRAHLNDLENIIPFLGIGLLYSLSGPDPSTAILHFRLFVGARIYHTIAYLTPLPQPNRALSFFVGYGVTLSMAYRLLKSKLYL
In words: Glutathione S-transferase Activity Assay. To be noted: pH 6.5. Here is the method: Enzymatic activity was determined spectrophotometrically by measuring the conjugation of CDNB with GSH. The 1 ml assay mixture contained 0.5 mM CDNB, 1 mMGSH, and 100 mM potassium phosphate buffer, pH 6.5. The rate of increase in absorbance at 340 nm was measured for 5 mm at 37°C against a blank containing thereaction mixture without enzyme.

Turning to `CO/N=C(\C(=O)N[C@@H]1C(=O)N2C(C(=O)O)=C(COC(N)=O)CS[C@H]12)c1ccco1` [640/359], the IC50 in assay [1] worked out at 18.8 µM; in assay [2], 44.3 µM; in assay [3], 56.4 µM. The figures for the Ki in assay [1], in assay [2] and in assay [3] were 10.4 µM, 32.7 µM and 32.4 µM, respectively.
`CO/N=C(\C(=O)N[C@@H]1C(=O)N2C(C(=O)O)=C(CSc3nc(=O)c(=O)[nH]n3C)CS[C@H]12)c1csc(N)n1` [(6R,7R)-7-{2-(2-Amino-thiazol-4-yl)-2-[(Z)-methoxyimino]-acetylamino}-3-(2-methyl-5,6-dioxo-1,2,5,6-tetrahydro-[1,2,4]triazin-3-ylsulfanylmethyl)-8-oxo-5-thia-1-aza-bicyclo[4.2.0]oct-2-ene-2-carboxylic acid]: the IC50 in assay [1] turned out to be 21.3 µM; in assay [2], 48.6 µM; in assay [3], 61.8 µM. Further, the inhibitory constant (Ki) in assay [1] came out at 17.3 µM; in assay [2] it was 34.1 µM; in assay [3] it was 35.4 µM.
On to `CCN1CCN(C(=O)N[C@@H](C(=O)N[C@@H]2C(=O)N3C(C(=O)O)=C(CSc4nnnn4C)CS[C@H]23)c2ccc(O)cc2)C(=O)C1=O` [CEFOPERAZONE], for which the IC50 in assay [1] was 48.4 µM; in assay [2], 313 µM; in assay [3] it was 484 µM. The inhibitory constant (Ki) in assay [1] is 28.7 µM; in assay [2], 245 µM; in assay [3], 267 µM.
Consider `CO/N=C(\C(=O)N[C@@H]1C(=O)N2C(C(=O)O)=CCS[C@H]12)c1csc(N)n1` [Ceftizoxime], for which the IC50 in assay [1] stood at 39.7 µM; in assay [2] it was 186 µM; in assay [3], 278 µM. The values for the Ki in assay [1], in assay [2] and in assay [3] were 22.8 µM, 121 µM and 165 µM, respectively.

Values taken from BindingDB's records for doi:10.3109/14756366.2012.688042 (Ondokuz Mayis University, 2013).
